Reference: patent publication US9957264B2 (Merck Sharp & Dohme Corp., priority 2013, dated 2018)

How the values were obtained:
[1] = target: JAK1 (recombinant purified GST-tagged catalytic domain) (Homo sapiens (Human), UniProt P23458); test: Jak Biochemical HTRF Assay (JAK1); conditions: [ATP] 31.8 μM
Procedure, shortened: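 Kinase reaction with biotinylated peptide substrate was started by ATP addition and run 120 min at room temperature, then quenched with EDTA stop buffer containing streptavidin-Dylight 650 and Eu-pY20 antibody. HTRF read 60 min later (665/615 nm ratio); percent inhibition vs log concentration fit to 4-parameter curve for IC50.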

[2] = target: JAK2 (recombinant purified GST-tagged catalytic domain) (Homo sapiens (Human), UniProt O60674); test: Jak Biochemical HTRF Assay (JAK2); conditions: [ATP] 8.5 μM
Chain of JAK2 (recombinant purified GST-tagged catalytic domain) (O60674 849-1124): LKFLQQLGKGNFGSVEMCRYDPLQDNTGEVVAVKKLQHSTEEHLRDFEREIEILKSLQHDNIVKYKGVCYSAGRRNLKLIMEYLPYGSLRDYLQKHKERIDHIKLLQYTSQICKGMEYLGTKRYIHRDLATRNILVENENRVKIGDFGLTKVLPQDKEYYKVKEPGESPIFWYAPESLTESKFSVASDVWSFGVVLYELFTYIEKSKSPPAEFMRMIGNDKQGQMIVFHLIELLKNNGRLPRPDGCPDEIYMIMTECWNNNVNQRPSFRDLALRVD

Chain of JAK1 (recombinant purified GST-tagged catalytic domain) (P23458 875-1153): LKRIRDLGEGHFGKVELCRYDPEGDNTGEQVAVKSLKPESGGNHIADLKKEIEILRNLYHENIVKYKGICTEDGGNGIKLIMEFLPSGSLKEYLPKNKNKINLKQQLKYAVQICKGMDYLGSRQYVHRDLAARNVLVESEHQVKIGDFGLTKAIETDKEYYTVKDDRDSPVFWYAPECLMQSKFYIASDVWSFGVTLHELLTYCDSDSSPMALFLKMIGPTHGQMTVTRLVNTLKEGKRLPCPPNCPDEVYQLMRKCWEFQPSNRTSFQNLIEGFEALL

For N#CC[C@@]1(n2nc(Nc3ccc(C(N)C(F)(F)F)cc3)c3c(=O)[nH]ccc32)CCCOC1 (single isomer, unassigned) [Example 5-188, {(3S)-3-[3-({4-[(1S or 1R)-1-amino-2,2,2-trifluoroethyl]phenyl}amino)-4-oxo-4,5-dihydro-1H-pyrazolo[4,3-c]pyridin-1-yl]tetrahydro-2H-pyran-3-yl}acetonitrile], the IC50 [1] was 0.11 nM and the IC50 [2] was 0.34 nM.

Compound CC(C)(C)NC(c1ccc(Nc2nn([C@]3(CC#N)CCCOC3)c3cc[nH]c(=O)c23)cc1)C(F)(F)F (single isomer, unassigned) [Example 5-189, {(3S)-3-[3-({4-[(1R or 1S)-1-(tert-butylamino)-2,2,2-trifluoroethyl]phenyl}amino)-4-oxo-4,5-dihydro-1H-pyrazolo [4,3-c]pyridin-1-yl]tetrahydro-2H-pyran-3-yl}acetonitrile] has an IC50 [1] of 0.14 nM and an IC50 [2] of 0.17 nM.

CC(C)(C)NC(c1ccc(Nc2nn([C@]3(CC#N)CCCOC3)c3cc[nH]c(=O)c23)cc1)C(F)(F)F (single isomer, unassigned) [Example 5-190, {(3S)-3-[3-({4-[(1S or 1R)-1-(tert-butylamino)-2,2,2-trifluoroethyl]phenyl}amino)-4-oxo-4,5-dihydro-1H-pyrazolo [4,3-c]pyridin-1-yl]tetrahydro-2H-pyran-3-yl}acetonitrile] showed an IC50 [1] of 0.21 nM and an IC50 [2] of 0.38 nM.

Compound CC(C)(C)NC(c1ccc(Nc2nn([C@]3(CC#N)CC[C@@H](C(=O)OC(C)(C)C)OC3)c3cc[nH]c(=O)c23)cc1)C(F)(F)F (single isomer, unassigned) [Example 5-194, (2S,5S)-tert-butyl 5-(3-((4-((R or S)-1-(tert-butylamino)-2,2,2-trifluoroethyl)phenyl)amino)-4-oxo-4,5-dihydro-1H-pyrazolo [4,3-c]pyridin-1-yl)-5-(cyanomethyl)tetrahydro-2H-pyran-2-carboxylate] has an IC50 [1] of 0.52 nM and an IC50 [2] of 0.82 nM.

For CC(C)(C)NC(c1ccc(Nc2nn([C@]3(CC#N)CC[C@@H](C(=O)OC(C)(C)C)OC3)c3cc[nH]c(=O)c23)cc1)C(F)(F)F (single isomer, unassigned) [Example 5-195, (2S,5S)-tert-butyl 5-(3-((4-((R or S)-1-(tert-butylamino)-2,2,2-trifluoroethyl)phenyl)amino)-4-oxo-4,5-dihydro-1H-pyrazolo [4,3-c]pyridin-1-yl)-5-(cyanomethyl)tetrahydro-2H-pyran-2-carboxylate], the IC50 [1] was 0.56 nM and the IC50 [2] was 0.68 nM.

In the case of N#CC[C@@]1(n2nc(Nc3ccc(C(N4CCCC4)C(F)(F)F)cc3)c3c(=O)[nH]ccc32)CCCOC1 (single isomer, unassigned) [Example 5-198, {(3S)-3-[4-oxo-3-({4-[(1R or 1S)-2,2,2-trifluoro-1-pyrrolidin-1-ylethyl]phenyl}amino)-4,5-dihydro-1H-pyrazolo [4,3-c]pyridin-1-yl]tetrahydro-2H-pyran-3-yl}acetonitrile], the IC50 [1] is reported as 0.16 nM and the IC50 [2] is reported as 0.39 nM.

With N#CC[C@@]1(n2nc(Nc3ccc(C(N4CCCC4)C(F)(F)F)cc3)c3c(=O)[nH]ccc32)CCCOC1 (single isomer, unassigned) [Example 5-199, {(3S)-3-[4-oxo-3-({4-[(1S or 1R)-2,2,2-trifluoro-1-pyrrolidin-1-ylethyl]phenyl}amino)-4,5-dihydro-1H-pyrazolo[4,3-c]pyridin-1-yl]tetrahydro-2H-pyran-3-yl}acetonitrile] the IC50 [1] was 0.15 nM and the IC50 [2] was 0.33 nM.

CC(c1ccc(Nc2nn([C@]3(CC#N)CCCOC3)c3cc[nH]c(=O)c23)cc1)N1CCCC1 (single isomer, unassigned) [Example 5-200, {(3S)-3-[4-oxo-3-({4-[(1S or 1R)-1-pyrrolidin-1-ylethyl]phenyl}amino)-4,5-dihydro-1H-pyrazolo[4,3-c]pyridin-1-yl]tetrahydro-2H-pyran-3-yl}acetonitrile] was tested, and the IC50 [1] was 1.15 nM and the IC50 [2] was 0.53 nM.

In the case of CC(c1ccc(Nc2nn([C@]3(CC#N)CCCOC3)c3cc[nH]c(=O)c23)cc1)N1CCCC1 (single isomer, unassigned) [Example 5-201, {(3S)-3-[4-oxo-3-({4-[(1R or 1S)-1-pyrrolidin-1-ylethyl]phenyl}amino)-4,5-dihydro-1H-pyrazolo[4,3-c]pyridin-1-yl]tetrahydro-2H-pyran-3-yl}acetonitrile], the IC50 [1] is reported as 0.49 nM and the IC50 [2] is reported as 0.27 nM.

CC(C)NC(c1ccc(Nc2nn([C@]3(CC#N)CCCOC3)c3cc[nH]c(=O)c23)cc1)C(F)(F)F (single isomer, unassigned) [Example 5-205, [(3S)-3-{4-oxo-3-[(4-{(1R or 1S)-2,2,2-trifluoro-1-[(1-methylethyl)amino]ethyl}phenyl)amino]-4,5-dihydro-1H-pyrazolo[4,3-c]pyridin-1-yl}tetrahydro-2H-pyran-3-yl]acetonitrile] showed an IC50 [1] of 0.17 nM and an IC50 [2] of 0.2 nM.

For CC(C)NC(c1ccc(Nc2nn([C@]3(CC#N)CCCOC3)c3cc[nH]c(=O)c23)cc1)C(F)(F)F (single isomer, unassigned) [Example 5-206, [(3S)-3-{4-oxo-3-[(4-{(1S or 1R)-2,2,2-trifluoro-1-[(1-methylethyl)amino]ethyl}phenyl)amino]-4,5-dihydro-1H-pyrazolo [4,3-c]pyridin-1-yl}tetrahydro-2H-pyran-3-yl]acetonitrile], the IC50 [1] was 0.13 nM and the IC50 [2] was 0.16 nM.

CCNC(c1ccc(Nc2nn([C@]3(CC#N)CC[C@@H](C(=O)OC(C)(C)C)OC3)c3cc[nH]c(=O)c23)cc1)C(F)(F)F (single isomer, unassigned) [Example 5-207, (2S,5S)-tert-butyl 5-(cyanomethyl)-5-(3-((4-((R or S)-1-(ethylamino)-2,2,2-trifluoroethyl)phenyl)amino)-4-oxo-4,5-dihydro-1H-pyrazolo[4,3-c]pyridin-1-yl)tetrahydro-2H-pyran-2-carboxylate] showed an IC50 [1] of 0.19 nM and an IC50 [2] of 0.26 nM.

CCNC(c1ccc(Nc2nn([C@]3(CC#N)CC[C@@H](C(=O)OC(C)(C)C)OC3)c3cc[nH]c(=O)c23)cc1)C(F)(F)F (single isomer, unassigned) [Example 5-208, (2S,5S)-tert-butyl 5-(cyanomethyl)-5-(3-((4-((R or S)-1-(ethylamino)-2,2,2-trifluoroethyl)phenyl)amino)-4-oxo-4,5-dihydro-1H-pyrazolo[4,3-c]pyridin-1-yl)tetrahydro-2H-pyran-2-carboxylate] showed an IC50 [1] of 0.24 nM and an IC50 [2] of 0.31 nM.

Compound CC(C)NC(c1ccc(Nc2nn([C@]3(CC#N)CC[C@@H](C(=O)OC(C)(C)C)OC3)c3cc[nH]c(=O)c23)cc1)C(F)(F)F (single isomer, unassigned) [Example 5-209, (2S,5S)-tert-butyl 5-(cyanomethyl)-5-(4-oxo-3-((4-((R or S)-2,2,2-trifluoro-1-(isopropylamino)ethyl)phenyl)amino)-4,5-dihydro-1H-pyrazolo [4,3-c]pyridin-1-yl)tetrahydro-2H-pyran-2-carboxylate] has an IC50 [1] of 0.32 nM and an IC50 [2] of 0.35 nM.

Work on CC(C)NC(c1ccc(Nc2nn([C@]3(CC#N)CC[C@@H](C(=O)OC(C)(C)C)OC3)c3cc[nH]c(=O)c23)cc1)C(F)(F)F (single isomer, unassigned) [Example 5-210, (2S,5S)-tert-butyl 5-(cyanomethyl)-5-(4-oxo-3-((4-((R or S)-2,2,2-trifluoro-1-(isopropylamino)ethyl)phenyl)amino)-4,5-dihydro-1H-pyrazolo[4,3-c]pyridin-1-yl)tetrahydro-2H-pyran-2-carboxylate] yielded an IC50 [1] of 0.41 nM and an IC50 [2] of 0.51 nM.
